Eight compounds from US12577255B2, “MDM2-based modulators of proteolysis and associated methods of use” (Arvinas Operations, Inc., priority 2015, dated 2026) can be followed below.

One experiment concerns the target T1, MDM2 (Homo sapiens, UniProt Q00987).
T1 construct: Western blot of HCT116 cells treated with chimeric molecules; endogenous in cells; host or cells: HCT116
Nature of the experiment: Western blot of HCT116 cells, MDM2 level. Format: cell-based. To be noted: Western blot (FIG. 2, FIG. 3).

The test system of a further experiment is p53. Kind of experiment: Western blot of HCT116 cells, p53 level. Format: cell-based, human. To be noted: Western blot (FIG. 2, FIG. 3).
For experiment [1], the target named is T2, bromodomain-containing protein 4 (BRD4) (Homo sapiens, UniProt O60885).
T2 construct: VCaP cells were chased from ATCC and cultured in Dulbecco's Modified Eagle's Medium; host or cells: VCaP
Kind of experiment: BRD4 Western blot (degradation). To be noted: at 1 μM; VCaP cells, 16 h. Format: cell-based. The procedure: (§1) The following biological assays were performed to evaluate the protein degradation in various cell types using representative compounds disclosed. The degradation of the following proteins were evaluated: bromodomain-containing protein 4 (BRD4), androgen receptor (AR), c-Myc, c-Jun N-terminal kinases (JNK), and enhancer of zeste homolog 2 (EZH2).
VCaP cells were chased from ATCC and cultured in Dulbecco's Modified Eagle's Medium (ATCC), supplemented with 10% FBS (ATCC) and Penicillin/Streptomycin (Life Technologies). DMSO control and compound treatments (0.03 μM to 1 μM) were performed in 12-well plates for 16 h. cells were harvested, and lysed in RIPA buffer (50 mM Tris pH8, 150 mM NaCl, 1% Tx-100, 0.1% SDS, 0.5% sodium deoxycholate) supplemented with protease and phosphatase inhibitors. Lysates were clarified at 16,000 g for 10 minutes, and protein concentration was determined. Equal amount of protein (20 μg) was subjected to SDS-PAGE analysis and followed by immunoblotting according to standard protocols. The antibodies used were BRD4 (Cell signaling #13440), and Actin (Sigma #5441). Detection reagents were Clarity Western ELC substrate (Bio-rad #170-5060).

The target in another experiment is T3, androgen receptor (AR) (Homo sapiens, UniProt P10275).
T3 construct: detects endogenous levels of total androgen receptor protein; host or cells: VCaP
T3 sequence (P10275 1-920): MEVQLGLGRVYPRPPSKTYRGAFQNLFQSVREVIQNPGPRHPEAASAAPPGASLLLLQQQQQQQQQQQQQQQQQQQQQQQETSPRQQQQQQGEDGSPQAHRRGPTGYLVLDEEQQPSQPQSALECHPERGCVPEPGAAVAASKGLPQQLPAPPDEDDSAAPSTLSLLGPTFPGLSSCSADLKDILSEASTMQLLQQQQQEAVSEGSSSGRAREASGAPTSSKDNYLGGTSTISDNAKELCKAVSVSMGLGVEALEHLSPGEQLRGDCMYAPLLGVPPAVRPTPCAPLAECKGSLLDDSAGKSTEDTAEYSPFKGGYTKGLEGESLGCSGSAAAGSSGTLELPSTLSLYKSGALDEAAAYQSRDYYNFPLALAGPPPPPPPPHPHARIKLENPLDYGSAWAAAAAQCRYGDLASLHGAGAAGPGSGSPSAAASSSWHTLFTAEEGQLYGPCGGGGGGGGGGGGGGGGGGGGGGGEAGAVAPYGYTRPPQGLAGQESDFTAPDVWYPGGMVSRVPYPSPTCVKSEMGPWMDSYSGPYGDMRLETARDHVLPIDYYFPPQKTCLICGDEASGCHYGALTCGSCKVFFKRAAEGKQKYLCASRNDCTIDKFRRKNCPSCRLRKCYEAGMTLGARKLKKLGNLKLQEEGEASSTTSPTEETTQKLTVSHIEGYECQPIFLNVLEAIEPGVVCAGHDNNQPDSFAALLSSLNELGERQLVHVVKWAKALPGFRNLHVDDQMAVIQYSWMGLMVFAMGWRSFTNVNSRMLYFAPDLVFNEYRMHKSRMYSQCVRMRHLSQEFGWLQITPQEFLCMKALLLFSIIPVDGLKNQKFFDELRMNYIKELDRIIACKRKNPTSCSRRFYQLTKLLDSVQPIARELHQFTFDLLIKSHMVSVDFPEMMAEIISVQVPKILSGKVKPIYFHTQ
Kind of experiment: AR ELISA assay (degradation). Format: cell-based. As to conditions: VCaP cells, 16 h. On the procedure: as §1
VCaP cells were chased from ATCC and cultured in Dulbecco's Modified Eagle's Medium (ATCC), supplemented with 10% FBS (ATCC) and Penicillin/Streptomycin (Life Technologies). DMSO control and compound treatments (0.0001 μM to 1 μM) were performed in 96-well plates for 16 h. cells were harvested, and lysed with Cell Lysis Buffer (catalog #9803) (20 mM Tris-HCl, pH 7.5, 150 mM NaCl, 1 mM Na2EDTA, 1 mM EGTA, 1% Triton, 2.5 mM sodium pyrophosphate, 1 mM B-glycerophosphate, 1 mM Na3VO4, 1 μg/mL leupeptin. Lysates were clarified at 16,000 g for 10 minutes, and loaded into PathScan AR ELISA (Cell Signaling Catalog #12850). The PathScan Total Androgen Receptor Sanwich ELISA Kit is a solid phase sandwich enzyme-linked immunosorbent assay (ELISA) that detects endogenous levels of total androgen receptor protein. An Androgen Receptor Rabbit mAb has been coated onto the microwells. After incubation with cell lysates, androgen receptor protein is captured by the coated antibody. Following extensive washing, an Androgen receptor Mouse Detection mAbis added to detect the captured androgen receptor protein. Anti-mouse IgG, HRP-linked Antibody is then used to recognize the bound detection antibody. HRP substrate, TMB, is added to develop color. The magnitude of absorbance for the developed color is proportional to the quantity of total androgen receptor protein.

Where only a bound is given, the exact number is not on record here.

T1 sequence (Q00987 whole entry): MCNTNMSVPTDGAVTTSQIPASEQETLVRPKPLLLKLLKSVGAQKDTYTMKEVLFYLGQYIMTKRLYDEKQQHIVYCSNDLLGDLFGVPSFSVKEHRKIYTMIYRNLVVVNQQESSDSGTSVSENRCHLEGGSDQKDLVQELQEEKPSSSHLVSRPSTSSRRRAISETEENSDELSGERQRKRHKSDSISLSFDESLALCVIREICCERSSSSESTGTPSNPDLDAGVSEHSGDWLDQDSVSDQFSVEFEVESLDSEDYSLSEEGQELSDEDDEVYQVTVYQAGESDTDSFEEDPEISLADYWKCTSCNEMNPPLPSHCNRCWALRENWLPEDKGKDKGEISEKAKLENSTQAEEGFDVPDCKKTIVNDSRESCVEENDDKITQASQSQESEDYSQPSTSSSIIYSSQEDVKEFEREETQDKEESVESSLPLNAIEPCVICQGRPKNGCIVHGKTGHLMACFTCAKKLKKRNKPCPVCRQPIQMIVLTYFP

As for `COc1cc(C(=O)NCCOCCOCC(=O)N[C@H](C(=O)N2C[C@H](O)C[C@H]2C(=O)NCc2ccc(-c3scnc3C)cc2)C(C)(C)C)ccc1NC(=O)C1NC(CC(C)(C)C)C(C#N)(c2ccc(Cl)cc2F)C1c1cccc(Cl)c1F` (mixture of isomers) [Compound A1877, 3-(3-chloro-2-fluorophenyl)-4-(4-chloro-2-fluorophenyl)-4-cyano-5-(2,2-dimethylpropyl)-N-[4-({2-[2-({[(2S)-1-[(2S,4R)-4-hydroxy-2-({[4-(4-methyl-1,3-thiazol-5-yl)phenyl]methyl}carbamoyl)pyrrolidin-1-yl]-3,3-dimethyl-1-oxobutan-2-yl]carbamoyl}methoxy)ethoxy]ethyl}carbamoyl)-2-methoxyphenyl]pyrrolidine-2-carboxamide], the MDM2 up-regulation result at MDM2 is given as “up-regulation of MDM2”. Further, the p53 level increase entry in the experiment on p53 is recorded as “dose dependent p53 level increase”.

`COc1cc(C(=O)NCCOCCOCCOCCOCC(=O)N[C@H](C(=O)N2C[C@H](O)C[C@H]2C(=O)NCc2ccc(-c3scnc3C)cc2)C(C)(C)C)ccc1NC(=O)[C@H]1N[C@H](CC(C)(C)C)[C@@](C#N)(c2ccc(Cl)cc2F)[C@@H]1c1cccc(Cl)c1F` (single isomer, unassigned) [Compound A1897]: at MDM2, the MDM2 up-regulation entry is “no MDM2 up-regulation”. Further, the p53 level increase entry in the experiment with p53 was “no p53 level increase”.

Take `COc1cc(C(=O)NCCOCCOCCNC(=O)C[C@@H]2N=C(c3ccc(Cl)cc3)c3c(sc(C)c3C)-n3c(C)nnc32)ccc1NC(=O)[C@@H]1N[C@@H](CC(C)(C)C)[C@](C#N)(c2ccc(Cl)cc2F)[C@H]1c1cccc(Cl)c1F` [Compound A1864, (2R,3S,4R,5S)-3-(3-chloro-2-fluorophenyl)-4-(4-chloro-2-fluorophenyl)-N-[4-({2-[2-(2-{2-[(9S)-7-(4-chlorophenyl)-4,5,13-trimethyl-3-thia-1,8,11,12-tetraazatricyclo-[8.3.0.0^2,^6]trideca-2(6),4,7,10,12-pentaen-9-yl]acetamido}ethoxy)ethoxy]ethyl}-carbamoyl)-2-methoxyphenyl]-4-cyano-5-(2,2-dimethylpropyl)pyrrolidine-2-carboxamide]: the “Degradation activity BRD4” value in experiment [1] was “B (25 to 50% degradation at 1 μM)”. Besides, the MDM2 up-regulation result on MDM2 is given as “up-regulation of MDM2”. The p53 level increase result in the experiment with p53 is “dose dependent p53 level increase”.

`COc1cc(C(=O)NCCOCCNC(=O)C[C@@H]2N=C(c3ccc(Cl)cc3)c3c(sc(C)c3C)-n3c(C)nnc32)ccc1NC(=O)[C@H]1N[C@H](CC(C)(C)C)[C@@](C#N)(c2ccc(Cl)cc2F)[C@@H]1c1cccc(Cl)c1F` [Compound A1891, (2S,3R,4S,5R)-3-(3-chloro-2-fluorophenyl)-4-(4-chloro-2-fluorophenyl)-N-(4-{[2-(2-{2-[(9S)-7-(4-chlorophenyl)-4,5,13-trimethyl-3-thia-1,8,11,12-tetraazatricyclo[8.3.0.0^2,^6]-trideca-2(6),4,7,10,12-pentaen-9-yl]acetamido}ethoxy)ethyl]carbamoyl}-2-methoxyphenyl)-4-cyano-5-(2,2-dimethylpropyl)pyrrolidine-2-carboxamide]: the “Degradation activity BRD4” value in experiment [1] was “A (0 to 25% degradation at 1 μM)”. Also, at MDM2, the MDM2 up-regulation entry was “no MDM2 up-regulation”. For the same compound, in the experiment on p53, the p53 level increase result is listed as “no p53 level increase”.

In the case of `COc1cc(C(=O)NCCOCCOCC(=O)N[C@H](C(=O)N2C[C@H](O)C[C@H]2C(=O)NCc2ccc(-c3scnc3C)cc2)C(C)(C)C)ccc1NC(=O)[C@H]1N[C@H](CC(C)(C)C)[C@@](C#N)(c2ccc(Cl)cc2F)[C@@H]1c1cccc(Cl)c1F` [Compound A1908], on MDM2, the MDM2 up-regulation result was “no MDM2 up-regulation”. Also, the p53 level increase result in the experiment with p53 is on record as “no p53 level increase”.

Turning to `COc1cc(C(=O)NCCOCCOCCOCC(=O)N[C@H](C(=O)N2C[C@H](O)C[C@H]2C(=O)NCc2ccc(-c3scnc3C)cc2)C(C)(C)C)ccc1NC(=O)[C@H]1N[C@H](CC(C)(C)C)[C@@](C#N)(c2ccc(Cl)cc2F)[C@@H]1c1cccc(Cl)c1F` [Compound A1911, (2S,3R,4S,5R)-3-(3-chloro-2-fluorophenyl)-4-(4-chloro-2-fluorophenyl)-4-cyano-5-(2,2-dimethylpropyl)-N-{4-[(2-{2-[2-({[(2S)-1-[(2S,4R)-4-hydroxy-2-({[4-(4-methyl-1,3-thiazol-5-yl)phenyl]methyl}-carbamoyl)pyrrolidin-1-yl]-3,3-dimethyl-1-oxobutan-2-yl]carbamoyl}methoxy)-ethoxy]ethoxy}ethyl)carbamoyl]-2-methoxyphenyl}pyrrolidine-2-carboxamide], the MDM2 up-regulation entry at MDM2 is on record as “no MDM2 up-regulation”. Further, in the experiment with p53, the p53 level increase entry is recorded as “no p53 level increase”.

`CC(C)(C)CC1NC(C(=O)NCCCOCCCCCOc2ccc(N3C(=S)N(c4ccc(C#N)c(C(F)(F)F)c4)C(=O)C3(C)C)cc2)C(c2cccc(Cl)c2F)C1(C#N)c1ccc(Cl)cc1F` (stereo not shown) [Compound A2434, 3-(3-chloro-2-fluorophenyl)-4-(4-chloro-2-fluorophenyl)-4-cyano-N-(3-{[5-(4-{3-[4-cyano-3-(trifluoromethyl)phenyl]-5,5-dimethyl-4-oxo-2-sulfanylideneimidazolidin-1-yl}phenoxy)pentyl]oxy}propyl)-5-(2,2-dimethylpropyl)pyrrolidine-2-carboxamide] displayed an AR degradation (%) at 1 µM at androgen receptor (AR) of over 50%.

In turn, `COc1cc(C(=O)NCCCOCCCCCOc2ccc(N3C(=S)N(c4ccc(C#N)c(C(F)(F)F)c4)C(=O)C3(C)C)cc2)ccc1NC(=O)C1NC(CC(C)(C)C)C(C#N)(c2ccc(Cl)cc2F)C1c1cccc(Cl)c1F` (stereo not shown) [Compound A2435, 3-(3-chloro-2-fluorophenyl)-4-(4-chloro-2-fluorophenyl)-4-cyano-N-{4-[(3-{[5-(4-{3-[4-cyano-3-(trifluoromethyl)phenyl]-5,5-dimethyl-4-oxo-2-sulfanylideneimidazolidin-1-yl}phenoxy)pentyl]oxy}propyl)carbamoyl]-2-methoxyphenyl}-5-(2,2-dimethylpropyl)pyrrolidine-2-carboxamide] registered an AR degradation (%) at 1 µM on androgen receptor (AR) of over 50%.
